In series [1] the test system is Mus musculus. The series is described as follows: Antiinflammatory activity in oxazolone-induced delayed type hypersensitivity BALB/c mouse model assessed as mast cell dermal infiltration at 0.6 mg applied topically on ear administered 3 hrs prior to oxazolone challenge on day 7 to 12 post sensitization followed by re-administration of compound on day 13 to 18 without oxazolone challenge measured on day 19 by H and E staining based assay. The format is functional.

Series [2] deals with Mus musculus. Description: Antiinflammatory activity in oxazolone-induced delayed type hypersensitivity BALB/c mouse model assessed as neutrophil dermal infiltration at 0.6 mg applied topically on ear administered 3 hrs prior to oxazolone challenge on day 7 to 12 post sensitization followed by re-administration of compound on day 13 to 18 without oxazolone challenge measured on day 19 by H and E staining based assay. The format is functional.

The subject of series [3] is Mus musculus. The series is described as follows: Antiinflammatory activity in oxazolone-induced delayed type hypersensitivity BALB/c mouse model assessed as ear weight at 0.6 mg applied topically on ear administered 3 hrs prior to oxazolone challenge on day 7 to 12 post sensitization followed by re-administration of compound on day 13 to 18 without oxazolone challenge measured on day 19 (reference value: 30.2 +/- 0.7 mg). The format is functional.

Series [4] concerns Mus musculus. Description: Antiinflammatory activity in oxazolone-induced delayed type hypersensitivity BALB/c mouse model assessed as ear swelling at 0.6 mg applied topically on ear administered 3 hrs prior to oxazolone challenge on day 7 to 12 post sensitization followed by re-administration of compound on day 13 to 18 without oxazolone challenge measured on day 13 (reference value: 666 +/- 28 micrometer). The format is functional.

For series [5], the system named is Mus musculus. Description: Antiinflammatory activity in oxazolone-induced delayed type hypersensitivity BALB/c mouse model assessed as ear thickness level at 0.6 mg applied topically on ear administered 3 hrs prior to oxazolone challenge on day 7 to 12 post sensitization followed by re-administration of compound on day 13 to 18 without oxazolone challenge measured on day 19 by H and E staining based assay. The format is functional.

Series [6] concerns Mus musculus. The series is described as follows: Antiinflammatory activity in oxazolone-induced delayed type hypersensitivity BALB/c mouse model assessed as lymphocyte dermal infiltration at 0.6 mg applied topically on ear administered 3 hrs prior to oxazolone challenge on day 7 to 12 post sensitization followed by re-administration of compound on day 13 to 18 without oxazolone challenge measured on day 19 by H and E staining based assay. The series is classed as functional.

Series [7] deals with Mus musculus. Description: Antiinflammatory activity in oxazolone-induced delayed type hypersensitivity BALB/c mouse model assessed as hyperplastic epidrmis at 0.6 mg applied topically on ear administered 3 hrs prior to oxazolone challenge on day 7 to 12 post sensitization followed by re-administration of compound on day 13 to 18 without oxazolone challenge measured on day 19 by H and E staining based assay. The format is functional.

The subject of series [8] is Mus musculus. Description: Antiinflammatory activity in oxazolone-induced delayed type hypersensitivity BALB/c mouse model assessed as ear swelling at 0.6 mg applied topically on ear administered 3 hrs prior to oxazolone challenge on day 7 to 12 post sensitization followed by re-administration of compound on day 13 to 18 without oxazolone challenge measured on day 19 (reference value: 242 +/- 11 micrometer). The format is functional.

In series [9] the test system is Mus musculus. Description: Antiinflammatory activity in arachidonic acid-induced ear dermatitis ICR mouse model assessed as reduction in ear swelling at 0.1 mg administered twice tropically 30 mins prior and 15 mins after arachidonic acid addition measured 60 mins post arachidonic acid challenge relative to control. The format is functional.
The subject of series [10] is Mus musculus. Description: Antiinflammatory activity in arachidonic acid-induced ear dermatitis ICR mouse model assessed as reduction in ear swelling at 0.3 mg administered twice tropically 30 mins prior and 15 mins after arachidonic acid addition measured 60 mins post arachidonic acid challenge relative to control. The format is functional.
The test system of series [11] is Mus musculus. The series is described as follows: Antiinflammatory activity in arachidonic acid-induced ear dermatitis ICR mouse model assessed as reduction in ear swelling at 1 mg administered twice tropically 30 mins prior and 15 mins after arachidonic acid addition measured 60 mins post arachidonic acid challenge relative to control. The format is functional.

Series [12] in a line: Displacement of [3H]DPDPE from delta-type opioid receptor in guinea pig brain membranes after 120 mins by solid scintillation counting. The series is classed as cell membranes, Cavia porcellus, Membrane. Background: Displacement assays read how much labelled ligand stays bound in the presence of the test substance.
The subject of series [13] is Mus musculus. Description: Toxicity in arachidonic acid-induced ear dermatitis ICR mouse model assessed as induction of modest to severe behaviour depression at 0.1 mg to 3 mg administered twice tropically 30 mins prior and 15 mins after arachidonic acid addition measured 60 mins post arachidonic acid challenge. Particulars: in vivo, topical_or_ocular, 1 h.
The target in series [14] is Kappa-type opioid receptor (Cavia porcellus, UniProt P41144). The series is described as follows: Displacement of [3H]U-69,593 from kappa-type opioid receptor in guinea pig brain membranes after 120 mins by solid scintillation counting. The series is classed as cell membranes, Membrane.
Chain of Kappa-type opioid receptor (Cavia porcellus, UniProt P41144) (P41144 whole entry): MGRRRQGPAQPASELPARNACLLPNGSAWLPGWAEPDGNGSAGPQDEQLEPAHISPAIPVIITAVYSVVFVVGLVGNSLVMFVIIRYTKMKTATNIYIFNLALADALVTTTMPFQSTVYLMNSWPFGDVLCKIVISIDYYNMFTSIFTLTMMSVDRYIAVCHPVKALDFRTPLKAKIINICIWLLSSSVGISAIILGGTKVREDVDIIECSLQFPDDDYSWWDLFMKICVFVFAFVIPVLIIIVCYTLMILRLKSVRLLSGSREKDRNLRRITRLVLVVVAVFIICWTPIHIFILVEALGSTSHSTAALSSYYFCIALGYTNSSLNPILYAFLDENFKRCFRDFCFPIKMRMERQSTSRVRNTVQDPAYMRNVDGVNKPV
Series [15] has as its target Kappa-type opioid receptor (Homo sapiens, UniProt P41145). Description: Agonist activity at recombinant human kappa-type opioid receptor expressed in HEK293 cells after 30 mins by [35S]GTPgammaS binding assay. The series is classed as functional, cell-based.
Series [16] has as its system Mus musculus. The series is described as follows: Antiinflammatory activity in arachidonic acid-induced ear dermatitis ICR mouse model assessed as reduction in ear swelling at 3 mg administered twice tropically 30 mins prior and 15 mins after arachidonic acid addition measured 60 mins post arachidonic acid challenge relative to control. The format is functional.
The nature of series [17]: Plasma concentration in Wistar Han rat at 0.3 mg/kg, iv measured 0.25 hrs post compound administration. The series is classed as ADME, organism-based.
Series [18] in a line: Drug level in Wistar Han rat brain at 0.3 mg/kg, iv measured 1 hr post compound administration. Particulars: read-out: Drug uptake. The format is ADME, organism-based.
Series [19] is described as follows: Plasma concentration in Wistar Han rat at 0.3 mg/kg, iv measured 1 hr post compound administration. The series is classed as ADME, organism-based.
Series [20] can be described thus: Ratio of drug level in brain to plasma in Wistar Han rat at 0.3 mg/kg, iv after 0.25 hrs. The format is ADME, organism-based. Particulars: read-out: BPR.
Series [21] has as its system Rattus norvegicus. The series is described as follows: Toxicity in Wistar Han rat assessed as induction of hunched or abnormal posture at 0.3 mg/kg, iv measured up to 2 hrs. The format is organism-based. The settings on record: in vivo.
Series [22] can be described thus: Ratio of drug level in brain to plasma in Wistar Han rat at 0.3 mg/kg, iv after 1 hr. The settings on record: read-out: BPR. The format is ADME, organism-based.
For series [23], the system named is Rattus norvegicus. The series is described as follows: Toxicity in Wistar Han rat assessed as induction of lethargy at 0.3 mg/kg, iv measured up to 2 hrs. Particulars: in vivo. The series is classed as organism-based.

The source made the active and inactive calls. The rule behind the calls is not given here.

What is called Ki is the equilibrium dissociation constant of an inhibitor or competing ligand from its target. As a reminder, the EC50 is the concentration needed to bring the measured effect to its halfway point.

Chain of Kappa-type opioid receptor (Homo sapiens, UniProt P41145) (P41145 whole entry): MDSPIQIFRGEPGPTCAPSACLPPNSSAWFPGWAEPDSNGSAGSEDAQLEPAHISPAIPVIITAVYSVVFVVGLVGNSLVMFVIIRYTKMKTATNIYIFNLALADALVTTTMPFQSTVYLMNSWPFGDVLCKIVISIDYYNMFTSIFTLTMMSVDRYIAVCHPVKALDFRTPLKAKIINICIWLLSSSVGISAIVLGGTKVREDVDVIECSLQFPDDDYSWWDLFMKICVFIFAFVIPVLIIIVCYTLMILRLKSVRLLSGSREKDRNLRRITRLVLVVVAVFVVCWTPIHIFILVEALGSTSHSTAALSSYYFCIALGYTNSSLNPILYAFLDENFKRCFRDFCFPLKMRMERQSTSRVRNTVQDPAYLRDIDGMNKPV

Consider `C[C@]12CCC(=O)C=C1CC[C@@H]1[C@@H]2[C@@H](O)C[C@@]2(C)[C@H]1CC[C@]2(O)C(=O)CO` [HYDROCORTISONE], for which the result in the series on Mus musculus [1], in the series with Mus musculus [2], in the series with Mus musculus [5], in the series with Mus musculus [6] and with Mus musculus [7] was Active. In addition, the Activity is given as 17.2 mg in the series on Mus musculus [3], 332 um in the series on Mus musculus [4] and 66 um in the series on Mus musculus [8].

As to `COC(=O)N1CCN(C(=O)Cc2ccc(F)c(Cl)c2)[C@@H]2[C@@H](N3CC[C@H](F)C3)CCC[C@@H]21`, the “inhibition (INH)” value with Mus musculus [9] turned out to be 25%; in the series with Mus musculus [10], 40%; in the series on Mus musculus [11], 66%; in the series with Mus musculus [16], 60%. Moreover, the Ki in [12] came to 74000 pM; in [14], 560 pM. Further, the Activity result in the series on Mus musculus [13] was “Toxic”. Further, the EC50 in series [15] came out at 400 pM.

The molecule `COC(=O)N1CCN(C(=O)Cc2ccc(Cl)c(Cl)c2)[C@@H]2[C@@H](N3CCCC3)CCC[C@@H]21.Cl` showed a concentration at 0.25 h in series [17] of 117 ng/mL. In addition, the results for the concentration at 1 h in series [18] and in series [19] were 24.2 ng/g and 37.3 ng/mL, respectively. In addition, in series [20], the Kp at 0.25 h turned out to be 0.5. Further, the Activity result in the series with Rattus norvegicus [21] and in the series with Rattus norvegicus [23] was “Toxic” throughout. The Kp at 1 h in series [22] stood at 0.65.

Source of the values: ChEMBL document CHEMBL4007424, “Design and Synthesis of Enantiomerically Pure Decahydroquinoxalines as Potent and Selective κ-Opioid Receptor Agonists with Anti-Inflammatory Activity in Vivo” (J Med Chem, 2017).
